Experimental data: US5385947A, “Octahydrophenanthrene derivatives” (Hoffmann-La Roche Inc., priority 1993, dated 1995)
Where a name gives a salt, the structure may show the parent alone.

How the values were obtained:
[1] = biological target: specific binding sites of dizocilpine ([3H]-MK801) in the rat cortex; test: 3H-MK801 (dizocilpine) binding test: inhibition of the binding of dizocilpine to the specific binding sites in rat cortex; conditions: 50 percent inhibition of specific binding of dizocilpine
Experimental: The pharmacological activity of some compounds in accordance with the invention and of rac-cis-4b-(2-amino-ethyl)4b,5,6,7,8,8a,9,10-octahydro-phenanthren-8a-ol was determined in vitro according to the method described in Europ. J. Pharmacol. 135, 261 (1987). According to this method [namely the 3H-MK801 (dizocilpine) binding test] the inhibition of the binding of dizocilpine to the specific binding sites in rat cortex by the respective test substances is determined. The IC50 ("50% inhibiting concentration") is that concentration of the respective test substance which brings about a 50 percent inhibition of the specific binding of dizocilpine to the specific binding sites in the rat cortex.
(§1) The thus-determined activity of some compounds in accordance with the invention will be evident from the IC50 values set forth in the following Table; moreover, the Table contains data concerning their toxicity (lowest lethal dosage=LLD in the mouse, p.o.).

[2] = tested on: mouse; test: Toxicity (lowest lethal dosage, LLD) in the mouse, p.o.; type: in vivo
From the text: as §1

SMILES	IC50 [1] [nM]	Toxicity LLD (lowest lethal dosage) [2] [mg/kg]
Cl.NCC[C@@]12CCCC[C@]1(O)CCc1c(F)cc(Cl)cc12 (racemic) [rac-cis-4b-(2-Amino-ethyl)-3-chloro-1-fluoro-4b,5,6,7,8,8a,9,10-octahydro-phenanthren-8a-ol hydrochloride]	107	1000
Cl.NCC[C@@]12CCCC[C@]1(O)CCc1ccc(Cl)cc12 (racemic) [rac-cis-4b-(2-Amino-ethyl)-3-chloro-4b,5,6,7,8,8a,9,10-octahydro-phenanthren-8a-ol hydrochloride]	84.7	500
Cl.NCC[C@@]12CCCC[C@]1(O)CCc1ccccc12 (racemic) [rac-cis-4b-(2-Amino-ethyl)-4b,5,6,7,8,8a,9,10-octahydro-phenanthren-8a-ol hydrochloride]	93	250
Cl.NCC[C@@]12CCCC[C@]1(O)CCc1ccc(O)cc12 (racemic) [rac-cis-4b-(2-Amino-ethyl)-4b,5,6,7,8,8a,9,10-octahydro-phenanthrene-3,8a-diol hydrochloride]	73.4	1000
CN(C)CC[C@@]12CCCC[C@]1(O)CCc1ccccc12 (racemic) [rac-cis-4b-(2-Dimethylamino-ethyl)-4b,5,6,7,8,8a,9,10-octahydro-phenanthren-8a-ol hydrochloride]	453	–
CN(C)CC[C@@]12CCCC[C@]1(O)CCc1ccc(Cl)cc12.Cl (single isomer, unassigned) [(-)-cis-3-Chloro-4b-(2-dimethylamino-ethyl)-4b,5,6,7,8,8a,9,10-octahydro-phenanthren-8a-ol hydrochloride]	254	375
